In ChEMBL document CHEMBL5465560, “Selectivity Literature for EUbOPEN Chemogenomic Library” (2024):

Experiments:
[1] = target: Cyclin-dependent kinase 11B (Homo sapiens) (UniProt P21127); experiment: Selectivity interaction (KinomeScan (DiscoverX)) EUB0000595a CDK11B; details: at 10 µM
[2] = target: T1, Tyrosine-protein kinase JAK3 (Homo sapiens) (UniProt P52333); experiment: Selectivity interaction (KinomeScan (DiscoverX)) EUB0000045b JAK3
T1 sequence (whole entry): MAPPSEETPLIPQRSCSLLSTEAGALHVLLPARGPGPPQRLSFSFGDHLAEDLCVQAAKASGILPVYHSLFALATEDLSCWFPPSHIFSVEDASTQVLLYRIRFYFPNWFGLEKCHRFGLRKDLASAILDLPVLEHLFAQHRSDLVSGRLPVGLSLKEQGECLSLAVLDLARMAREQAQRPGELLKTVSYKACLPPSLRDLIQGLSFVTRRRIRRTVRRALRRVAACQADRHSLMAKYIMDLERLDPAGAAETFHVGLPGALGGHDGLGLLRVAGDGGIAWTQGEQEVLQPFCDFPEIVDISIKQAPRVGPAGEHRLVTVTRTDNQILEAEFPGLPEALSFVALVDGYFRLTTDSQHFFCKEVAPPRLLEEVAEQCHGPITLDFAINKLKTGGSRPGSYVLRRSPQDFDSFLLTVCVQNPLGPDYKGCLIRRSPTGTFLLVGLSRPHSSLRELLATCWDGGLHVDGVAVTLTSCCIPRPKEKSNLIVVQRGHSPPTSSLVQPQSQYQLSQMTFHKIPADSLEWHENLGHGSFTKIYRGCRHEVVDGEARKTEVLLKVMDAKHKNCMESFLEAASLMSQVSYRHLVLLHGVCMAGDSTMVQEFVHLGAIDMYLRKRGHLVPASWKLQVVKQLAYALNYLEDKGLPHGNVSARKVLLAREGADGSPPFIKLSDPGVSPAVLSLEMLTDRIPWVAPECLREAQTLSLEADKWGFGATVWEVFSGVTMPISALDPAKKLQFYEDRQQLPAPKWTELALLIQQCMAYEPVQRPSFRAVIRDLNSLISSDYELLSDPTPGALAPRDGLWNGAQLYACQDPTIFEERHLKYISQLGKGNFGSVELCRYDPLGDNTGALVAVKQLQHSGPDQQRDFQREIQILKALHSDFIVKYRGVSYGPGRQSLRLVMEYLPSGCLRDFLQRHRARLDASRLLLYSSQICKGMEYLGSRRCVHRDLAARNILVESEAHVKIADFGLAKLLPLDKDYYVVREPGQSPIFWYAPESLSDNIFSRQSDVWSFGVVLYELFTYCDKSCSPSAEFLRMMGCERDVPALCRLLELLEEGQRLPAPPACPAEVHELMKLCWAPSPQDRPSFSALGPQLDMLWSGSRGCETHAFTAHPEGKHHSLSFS

[3] = target: T2, Serine/threonine-protein kinase RIO1 (Homo sapiens) (UniProt Q9BRS2); experiment: Selectivity interaction (KinomeScan (DiscoverX)) EUB0000045b RIOK1
T2 sequence (whole entry): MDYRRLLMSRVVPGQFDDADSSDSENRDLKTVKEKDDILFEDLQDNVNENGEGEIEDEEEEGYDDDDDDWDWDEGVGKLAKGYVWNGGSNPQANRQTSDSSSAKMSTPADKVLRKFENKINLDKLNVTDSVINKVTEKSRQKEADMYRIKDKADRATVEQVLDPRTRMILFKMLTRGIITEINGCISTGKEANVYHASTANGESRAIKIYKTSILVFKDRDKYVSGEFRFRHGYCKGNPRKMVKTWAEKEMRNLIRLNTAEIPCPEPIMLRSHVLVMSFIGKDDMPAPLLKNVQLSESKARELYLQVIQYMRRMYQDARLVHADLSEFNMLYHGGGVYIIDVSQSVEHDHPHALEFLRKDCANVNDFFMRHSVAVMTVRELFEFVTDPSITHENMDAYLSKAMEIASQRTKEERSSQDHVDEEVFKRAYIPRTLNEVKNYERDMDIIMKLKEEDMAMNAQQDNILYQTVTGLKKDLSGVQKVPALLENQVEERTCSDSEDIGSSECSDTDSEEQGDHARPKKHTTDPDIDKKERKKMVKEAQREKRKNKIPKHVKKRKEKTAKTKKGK

[4] = target: T3, Homeodomain-interacting protein kinase 4 (Homo sapiens) (UniProt Q8NE63); experiment: Selectivity interaction (KinomeScan (DiscoverX)) EUB0001079a HIPK4; details: at 1 µM
T3 sequence (whole entry): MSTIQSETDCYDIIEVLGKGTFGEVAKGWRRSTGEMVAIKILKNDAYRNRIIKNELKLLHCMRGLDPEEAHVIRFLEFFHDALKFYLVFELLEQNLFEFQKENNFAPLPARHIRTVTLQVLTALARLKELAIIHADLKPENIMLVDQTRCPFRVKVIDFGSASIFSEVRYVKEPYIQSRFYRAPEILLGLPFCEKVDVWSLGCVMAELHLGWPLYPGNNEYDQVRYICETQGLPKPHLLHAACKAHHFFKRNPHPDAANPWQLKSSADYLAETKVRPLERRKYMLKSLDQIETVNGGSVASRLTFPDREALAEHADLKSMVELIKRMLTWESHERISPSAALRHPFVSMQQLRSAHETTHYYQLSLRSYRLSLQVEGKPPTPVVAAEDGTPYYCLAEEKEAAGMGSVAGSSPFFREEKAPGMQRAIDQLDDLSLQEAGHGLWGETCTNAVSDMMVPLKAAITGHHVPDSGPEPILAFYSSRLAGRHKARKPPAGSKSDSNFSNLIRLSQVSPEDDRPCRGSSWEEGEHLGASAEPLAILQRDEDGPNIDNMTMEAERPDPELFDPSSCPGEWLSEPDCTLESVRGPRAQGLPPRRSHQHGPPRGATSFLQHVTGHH

[5] = target: 3',5'-cyclic-AMP phosphodiesterase 4A (Homo sapiens, UniProt P27815); experiment: Selectivity interaction (Enzyme panel (AstraZeneca, AlphaScreen, functional assay)) EUB0000621a PDE4A
[6] = target: Dual specificity protein kinase CLK1 (Homo sapiens, UniProt P49759); experiment: Selectivity interaction (KinomeScan (DiscoverX)) EUB0000607a CLK1; details: at 10 µM
[7] = target: Ribosomal protein S6 kinase alpha-3 (Homo sapiens, UniProt P51812); experiment: Selectivity interaction (ActivX KiNativ screen (kinase selectivity in THP-1 cell lysates)) EUB0000639a RPS6KA3; type: subcellular; details: lysate
[8] = target: Mitogen-activated protein kinase kinase kinase 11 (Homo sapiens) (UniProt Q16584); details: at 10 µM
[9] = target: Mitogen-activated protein kinase 11 (Homo sapiens) (UniProt Q15759); experiment: Selectivity interaction (Ambit KINOMEscan and KiNATiv profiling in Jurkat cells) EUB0000090b MAPK11; type: cell-based; details: at 1 µM
Sequence of Mitogen-activated protein kinase 11 (Homo sapiens) (Q15759 whole entry): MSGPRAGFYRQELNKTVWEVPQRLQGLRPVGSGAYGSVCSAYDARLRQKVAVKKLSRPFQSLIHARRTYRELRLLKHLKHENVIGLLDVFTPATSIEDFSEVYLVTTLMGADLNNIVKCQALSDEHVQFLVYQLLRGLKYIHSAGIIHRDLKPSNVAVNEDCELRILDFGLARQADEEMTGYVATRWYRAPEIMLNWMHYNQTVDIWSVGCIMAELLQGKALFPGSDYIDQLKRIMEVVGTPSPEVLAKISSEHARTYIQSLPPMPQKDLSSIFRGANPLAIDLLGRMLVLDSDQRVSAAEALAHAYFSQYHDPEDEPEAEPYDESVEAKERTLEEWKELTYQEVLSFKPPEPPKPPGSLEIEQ

Sequence of Ribosomal protein S6 kinase alpha-3 (P51812 whole entry): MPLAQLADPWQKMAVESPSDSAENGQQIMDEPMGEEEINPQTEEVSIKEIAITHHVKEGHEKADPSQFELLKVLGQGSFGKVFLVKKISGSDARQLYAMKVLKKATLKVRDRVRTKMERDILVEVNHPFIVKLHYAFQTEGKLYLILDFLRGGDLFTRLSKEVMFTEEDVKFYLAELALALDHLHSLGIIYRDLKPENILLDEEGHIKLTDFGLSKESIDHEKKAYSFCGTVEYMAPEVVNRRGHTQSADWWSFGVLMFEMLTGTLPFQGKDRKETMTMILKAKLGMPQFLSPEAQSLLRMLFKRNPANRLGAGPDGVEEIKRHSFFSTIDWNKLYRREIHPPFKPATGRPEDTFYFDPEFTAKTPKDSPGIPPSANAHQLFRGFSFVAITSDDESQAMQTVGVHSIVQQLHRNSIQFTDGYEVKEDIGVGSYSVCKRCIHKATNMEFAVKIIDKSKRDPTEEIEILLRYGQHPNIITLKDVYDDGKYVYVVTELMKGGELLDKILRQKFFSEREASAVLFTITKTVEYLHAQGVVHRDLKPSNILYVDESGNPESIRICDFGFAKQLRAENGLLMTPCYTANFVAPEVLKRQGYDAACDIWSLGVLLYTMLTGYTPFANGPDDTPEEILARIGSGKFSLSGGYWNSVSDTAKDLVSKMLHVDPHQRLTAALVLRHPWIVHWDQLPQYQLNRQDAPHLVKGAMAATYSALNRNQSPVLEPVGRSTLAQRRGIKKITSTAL
Sequence of 3',5'-cyclic-AMP phosphodiesterase 4A (P27815 whole entry): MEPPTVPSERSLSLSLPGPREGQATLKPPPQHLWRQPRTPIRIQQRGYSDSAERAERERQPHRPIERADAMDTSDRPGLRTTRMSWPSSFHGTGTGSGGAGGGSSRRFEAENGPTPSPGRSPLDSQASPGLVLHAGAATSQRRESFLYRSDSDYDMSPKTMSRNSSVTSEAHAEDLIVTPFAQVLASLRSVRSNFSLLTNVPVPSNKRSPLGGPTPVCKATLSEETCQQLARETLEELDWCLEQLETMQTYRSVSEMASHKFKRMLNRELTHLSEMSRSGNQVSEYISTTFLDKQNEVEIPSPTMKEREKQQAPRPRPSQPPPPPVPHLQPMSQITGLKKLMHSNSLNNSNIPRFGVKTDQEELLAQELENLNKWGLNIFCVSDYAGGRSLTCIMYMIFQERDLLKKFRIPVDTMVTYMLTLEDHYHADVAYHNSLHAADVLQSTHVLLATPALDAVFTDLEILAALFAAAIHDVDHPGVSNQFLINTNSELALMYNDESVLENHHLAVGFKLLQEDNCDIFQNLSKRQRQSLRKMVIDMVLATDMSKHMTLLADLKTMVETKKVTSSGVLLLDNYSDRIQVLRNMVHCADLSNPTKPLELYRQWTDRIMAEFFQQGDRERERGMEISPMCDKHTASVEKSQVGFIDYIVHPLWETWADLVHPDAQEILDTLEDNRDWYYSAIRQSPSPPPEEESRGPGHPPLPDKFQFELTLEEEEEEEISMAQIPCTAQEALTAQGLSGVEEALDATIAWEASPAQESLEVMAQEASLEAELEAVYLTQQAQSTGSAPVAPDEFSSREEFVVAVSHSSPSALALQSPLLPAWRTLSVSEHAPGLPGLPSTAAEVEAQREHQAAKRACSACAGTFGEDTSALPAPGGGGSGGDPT
Sequence of Mitogen-activated protein kinase kinase kinase 11 (Homo sapiens) (Q16584 whole entry, looked up): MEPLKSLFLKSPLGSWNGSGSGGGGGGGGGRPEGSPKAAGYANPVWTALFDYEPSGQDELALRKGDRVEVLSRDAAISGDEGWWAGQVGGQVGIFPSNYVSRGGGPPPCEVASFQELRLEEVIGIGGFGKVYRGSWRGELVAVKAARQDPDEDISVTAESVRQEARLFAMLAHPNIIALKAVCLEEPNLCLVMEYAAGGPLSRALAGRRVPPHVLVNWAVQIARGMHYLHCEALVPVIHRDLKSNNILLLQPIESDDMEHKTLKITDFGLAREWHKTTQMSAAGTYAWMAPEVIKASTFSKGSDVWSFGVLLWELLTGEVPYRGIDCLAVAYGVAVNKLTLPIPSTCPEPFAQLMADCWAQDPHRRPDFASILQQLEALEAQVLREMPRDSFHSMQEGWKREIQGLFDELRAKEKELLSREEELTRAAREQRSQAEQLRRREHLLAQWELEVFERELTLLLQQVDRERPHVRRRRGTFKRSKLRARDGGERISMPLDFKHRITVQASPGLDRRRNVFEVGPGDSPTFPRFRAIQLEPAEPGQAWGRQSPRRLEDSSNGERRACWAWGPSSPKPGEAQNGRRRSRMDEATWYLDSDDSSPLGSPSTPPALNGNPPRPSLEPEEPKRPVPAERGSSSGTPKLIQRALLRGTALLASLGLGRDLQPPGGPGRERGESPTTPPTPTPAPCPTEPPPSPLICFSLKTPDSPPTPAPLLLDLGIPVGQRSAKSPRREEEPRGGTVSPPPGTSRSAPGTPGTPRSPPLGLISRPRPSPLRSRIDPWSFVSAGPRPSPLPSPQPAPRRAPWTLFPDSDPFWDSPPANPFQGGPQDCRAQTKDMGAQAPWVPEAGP
Sequence of Cyclin-dependent kinase 11B (Homo sapiens) (P21127 whole entry): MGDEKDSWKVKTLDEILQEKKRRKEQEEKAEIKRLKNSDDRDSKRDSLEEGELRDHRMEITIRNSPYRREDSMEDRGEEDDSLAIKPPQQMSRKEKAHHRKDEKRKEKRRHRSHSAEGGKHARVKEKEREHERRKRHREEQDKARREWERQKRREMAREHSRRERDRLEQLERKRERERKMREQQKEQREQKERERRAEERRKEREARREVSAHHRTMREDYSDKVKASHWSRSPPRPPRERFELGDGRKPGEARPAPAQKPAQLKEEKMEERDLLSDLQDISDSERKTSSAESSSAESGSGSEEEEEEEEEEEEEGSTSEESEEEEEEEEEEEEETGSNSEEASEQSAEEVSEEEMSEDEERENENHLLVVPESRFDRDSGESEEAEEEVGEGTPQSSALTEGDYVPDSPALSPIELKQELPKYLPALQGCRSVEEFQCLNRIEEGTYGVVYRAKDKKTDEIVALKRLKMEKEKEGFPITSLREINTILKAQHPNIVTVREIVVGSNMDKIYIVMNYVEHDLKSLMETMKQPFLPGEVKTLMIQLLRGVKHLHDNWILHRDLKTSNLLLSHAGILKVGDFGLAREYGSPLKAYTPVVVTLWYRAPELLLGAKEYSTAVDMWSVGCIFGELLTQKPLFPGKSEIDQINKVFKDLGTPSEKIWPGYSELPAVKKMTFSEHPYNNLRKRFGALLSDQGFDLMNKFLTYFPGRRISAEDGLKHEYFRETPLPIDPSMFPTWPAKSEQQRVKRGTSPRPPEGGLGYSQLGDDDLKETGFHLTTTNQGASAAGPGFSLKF
Sequence of Dual specificity protein kinase CLK1 (P49759 whole entry, looked up): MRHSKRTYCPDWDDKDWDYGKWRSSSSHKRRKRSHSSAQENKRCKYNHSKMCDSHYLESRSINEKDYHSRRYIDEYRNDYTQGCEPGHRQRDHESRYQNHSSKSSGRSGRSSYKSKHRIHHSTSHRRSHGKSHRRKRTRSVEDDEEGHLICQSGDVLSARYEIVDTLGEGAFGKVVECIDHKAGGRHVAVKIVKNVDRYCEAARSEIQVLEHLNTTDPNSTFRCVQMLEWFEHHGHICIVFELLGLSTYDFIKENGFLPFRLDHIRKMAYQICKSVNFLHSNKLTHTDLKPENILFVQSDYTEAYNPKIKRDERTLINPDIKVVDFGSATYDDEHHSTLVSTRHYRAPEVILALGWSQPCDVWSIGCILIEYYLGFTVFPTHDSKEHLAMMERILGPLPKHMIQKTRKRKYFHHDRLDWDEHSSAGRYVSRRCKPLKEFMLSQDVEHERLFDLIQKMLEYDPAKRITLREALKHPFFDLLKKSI

## COCC(=O)NC/C=C/c1ccc2ncnc(Nc3ccc(Oc4ccc(C)nc4)c(C)c3)c2c1 [CP-724714]
[1]
  % of control: 100%

## C=CC(=O)Nc1cc(-n2c(=O)ccc3cnc4ccc(-c5ccc(NS(C)(=O)=O)cc5)cc4c32)ccc1C
[2]; at 1 µM
  % of control: 6.6%
[2]; at 10 µM
  % of control: 0.6%
[3]; at 1 µM
  % of control: 20%
[3]; at 10 µM
  % of control: 52%

## Nc1cnc(N2CCc3cc(S(=O)(=O)Nc4c(F)cc(Cl)cc4F)cc(N4CCCC4=O)c32)nc1 [TP-020n]
[4]
  % of control: 100%

## Cc1cc([C@@H](C)Nc2ccccc2C(=O)O)c2nc(N3CCOCC3)cc(=O)n2c1 [AZD-6482]
[5]
  IC50: 17 µM

## CNC(=O)Nc1ccc(-c2nc(N3CC4CCC(C3)O4)c3cnn(C4CCC5(CC4)OCCO5)c3n2)cc1
[6]
  % of control: 29%

## CC[C@@H]1[C@H](F)C(=O)N[C@@H]1COc1nccc2cc(C(N)=O)c(OC)cc12 [ZIMLOVISERTIB]
[7]; at 0.01 µM
  % of inhibition: 16.9%
[7]; at 0.04 µM
  % of inhibition: 12.4%
[7]; at 0.2 µM
  % of inhibition: 10.3%
[7]; at 1 µM
  % of inhibition: 8.6%
[7]; at 5 µM
  % of inhibition: 11.7%

## CCN(CC)CCCCNc1ncc2cc(-c3cc(OC)cc(OC)c3)c(NC(=O)NC(C)(C)C)nc2n1
[8]
  % of control: 100%

## CN(C)C/C=C/C(=O)Nc1ccc(C(=O)N2CCCC(Nc3ncc(Cl)c(-c4c[nH]c5ccccc45)n3)C2)cc1 (stereo not given)
[9]
  % of control: 97%
